Results from ChEMBL document CHEMBL4382269, “Discovery of Potent, Efficient, and Selective Inhibitors of Phosphoinositide 3-Kinase δ through a Deconstruction and Regrowth Approach” (J Med Chem, 2018).
Converted amounts (≈) assume the structure as drawn. One block for each compound: values may come before it.

Experiments:
[1] = species on record: Homo sapiens; assay: Selectivity ratio of IC50 for EGFR (unknown origin) to IC50 for PI3Kdelta (unknown origin)
[2] = species on record: Homo sapiens; assay: Selectivity ratio of IC50 for PI3Kbeta (unknown origin) to IC50 for PI3Kdelta (unknown origin)
[3] = species on record: Homo sapiens; assay: Selectivity ratio of IC50 for SYK (unknown origin) to IC50 for PI3Kdelta (unknown origin)
[4] = species on record: Homo sapiens; assay: Selectivity ratio of IC50 for DAG gamma (unknown origin) to IC50 for PI3Kdelta (unknown origin)
[5] = species on record: Homo sapiens; assay: Selectivity ratio of IC50 for CHKA (unknown origin) to IC50 for PI3Kdelta (unknown origin)
[6] = species on record: Homo sapiens; assay: Selectivity ratio of IC50 for ASK1 (unknown origin) to IC50 for PI3Kdelta (unknown origin)
[7] = species on record: Homo sapiens; assay: Selectivity ratio of IC50 for PIP4K2A (unknown origin) to IC50 for PI3Kdelta (unknown origin)
[8] = species on record: Homo sapiens; assay: Selectivity ratio of IC50 for JAK2 (unknown origin) to IC50 for PI3Kdelta (unknown origin)
[9] = species on record: Homo sapiens; assay: Selectivity ratio of IC50 for JNK1 (unknown origin) to IC50 for PI3Kdelta (unknown origin)
[10] = species on record: Homo sapiens; assay: Selectivity ratio of IC50 for DNA-PK (unknown origin) to IC50 for PI3Kdelta (unknown origin)
[11] = species on record: Homo sapiens; assay: Selectivity ratio of IC50 for IKK1 (unknown origin) to IC50 for PI3Kdelta (unknown origin)
[12] = species on record: Homo sapiens; assay: Selectivity ratio of IC50 for PI3Kalpha (unknown origin) to IC50 for PI3Kdelta (unknown origin)
[13] = biological target: Phosphatidylinositol 4,5-bisphosphate 3-kinase catalytic subunit alpha isoform (Homo sapiens, UniProt P42336); assay: Inhibition of PI3Kalpha (unknown origin) using PIP2 as substrate preincubated for 15 mins followed by substrate addition measured after 60 mins by HTRF method
Chain of Phosphatidylinositol 4,5-bisphosphate 3-kinase catalytic subunit alpha isoform (P42336 whole entry, canonical isoform): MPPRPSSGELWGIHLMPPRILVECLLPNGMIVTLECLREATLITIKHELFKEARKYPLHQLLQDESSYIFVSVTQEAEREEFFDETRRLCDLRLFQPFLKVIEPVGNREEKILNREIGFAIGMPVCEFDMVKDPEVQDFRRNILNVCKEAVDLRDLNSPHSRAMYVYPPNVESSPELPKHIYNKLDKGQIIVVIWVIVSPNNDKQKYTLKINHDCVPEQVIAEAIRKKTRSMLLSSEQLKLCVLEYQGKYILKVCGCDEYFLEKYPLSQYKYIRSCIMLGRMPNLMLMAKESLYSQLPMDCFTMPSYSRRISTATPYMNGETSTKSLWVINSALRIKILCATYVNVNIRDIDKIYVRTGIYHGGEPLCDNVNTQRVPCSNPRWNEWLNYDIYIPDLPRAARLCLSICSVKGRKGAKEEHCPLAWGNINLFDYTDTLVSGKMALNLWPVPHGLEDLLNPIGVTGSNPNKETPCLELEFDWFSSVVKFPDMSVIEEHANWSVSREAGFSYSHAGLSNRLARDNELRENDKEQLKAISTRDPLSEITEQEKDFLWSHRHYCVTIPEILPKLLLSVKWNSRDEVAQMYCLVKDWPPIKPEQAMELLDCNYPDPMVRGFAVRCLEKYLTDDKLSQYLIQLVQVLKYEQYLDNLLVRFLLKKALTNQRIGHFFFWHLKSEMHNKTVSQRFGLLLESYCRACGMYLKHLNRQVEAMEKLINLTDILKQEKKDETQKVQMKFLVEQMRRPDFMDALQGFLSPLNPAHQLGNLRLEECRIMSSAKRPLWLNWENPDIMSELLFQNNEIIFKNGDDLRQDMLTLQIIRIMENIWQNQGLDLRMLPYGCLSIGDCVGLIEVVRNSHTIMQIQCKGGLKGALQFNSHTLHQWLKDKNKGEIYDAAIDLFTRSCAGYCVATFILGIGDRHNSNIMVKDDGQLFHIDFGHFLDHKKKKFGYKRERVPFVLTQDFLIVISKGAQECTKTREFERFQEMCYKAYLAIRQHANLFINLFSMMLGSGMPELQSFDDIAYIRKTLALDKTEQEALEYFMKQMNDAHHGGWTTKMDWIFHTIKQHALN

[14] = species on record: Homo sapiens; assay: Selectivity ratio of IC50 for IKK2 (unknown origin) to IC50 for PI3Kdelta (unknown origin)
[15] = species on record: Homo sapiens; assay: Selectivity ratio of IC50 for ITK (unknown origin) to IC50 for PI3Kdelta (unknown origin)
[16] = species on record: Homo sapiens; assay: Selectivity ratio of IC50 for LRRK2 (unknown origin) to IC50 for PI3Kdelta (unknown origin)
[17] = species on record: Homo sapiens; assay: Selectivity ratio of IC50 for CHKB (unknown origin) to IC50 for PI3Kdelta (unknown origin)
[18] = biological target: Phosphatidylinositol 4,5-bisphosphate 3-kinase catalytic subunit beta isoform (Homo sapiens, UniProt P42338); assay: Inhibition of PI3Kbeta (unknown origin) using PIP2 as substrate preincubated for 15 mins followed by substrate addition measured after 60 mins by HTRF method
Chain of Phosphatidylinositol 4,5-bisphosphate 3-kinase catalytic subunit beta isoform (P42338 whole entry, canonical isoform): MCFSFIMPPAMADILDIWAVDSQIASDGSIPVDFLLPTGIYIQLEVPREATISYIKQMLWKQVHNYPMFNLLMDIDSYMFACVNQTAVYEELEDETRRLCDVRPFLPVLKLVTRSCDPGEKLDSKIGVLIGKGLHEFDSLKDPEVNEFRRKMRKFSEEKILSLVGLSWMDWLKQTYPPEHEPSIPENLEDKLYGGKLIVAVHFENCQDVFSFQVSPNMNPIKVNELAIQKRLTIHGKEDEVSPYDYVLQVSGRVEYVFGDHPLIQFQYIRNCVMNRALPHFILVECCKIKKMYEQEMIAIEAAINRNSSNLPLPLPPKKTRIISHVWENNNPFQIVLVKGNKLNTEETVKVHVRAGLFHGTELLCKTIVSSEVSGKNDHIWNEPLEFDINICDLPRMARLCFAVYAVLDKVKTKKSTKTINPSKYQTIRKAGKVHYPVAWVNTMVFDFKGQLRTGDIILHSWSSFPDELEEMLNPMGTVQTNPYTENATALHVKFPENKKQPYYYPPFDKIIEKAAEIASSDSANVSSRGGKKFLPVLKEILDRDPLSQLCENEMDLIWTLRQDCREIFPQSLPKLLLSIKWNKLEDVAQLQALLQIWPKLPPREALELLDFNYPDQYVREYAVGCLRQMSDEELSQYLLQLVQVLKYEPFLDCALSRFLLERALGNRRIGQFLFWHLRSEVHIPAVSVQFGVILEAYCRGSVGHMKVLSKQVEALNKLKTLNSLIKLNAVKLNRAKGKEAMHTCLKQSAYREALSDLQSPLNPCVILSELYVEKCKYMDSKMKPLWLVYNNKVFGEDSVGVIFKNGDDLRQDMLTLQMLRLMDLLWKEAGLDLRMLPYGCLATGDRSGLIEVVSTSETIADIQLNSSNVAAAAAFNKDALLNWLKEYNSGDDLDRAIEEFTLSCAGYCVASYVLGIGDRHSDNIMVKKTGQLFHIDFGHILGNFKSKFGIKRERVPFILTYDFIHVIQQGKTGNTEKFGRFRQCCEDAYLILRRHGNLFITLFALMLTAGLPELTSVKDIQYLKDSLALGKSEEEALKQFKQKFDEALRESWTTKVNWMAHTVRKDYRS

[19] = Kinetic solubility of the compound in phosphate buffer saline at pH 7.4 after 1 hr by CLND method; type: physicochemical; conditions: phosphate buffered saline, read-out: Kinetic_solubility
[20] = species on record: Homo sapiens; assay: Selectivity ratio of IC50 for mTOR (unknown origin) to IC50 for PI3Kdelta (unknown origin)
[21] = species on record: Homo sapiens; assay: Selectivity ratio of IC50 for PI4KA (unknown origin) to IC50 for PI3Kdelta (unknown origin)
[22] = species on record: Homo sapiens; assay: Selectivity ratio of IC50 for LCK (unknown origin) to IC50 for PI3Kdelta (unknown origin)
[23] = species on record: Homo sapiens; assay: Selectivity ratio of IC50 for PI3Kgamma (unknown origin) to IC50 for PI3Kdelta (unknown origin)
[24] = species on record: Homo sapiens; assay: Selectivity ratio of IC50 for SPHK2 (unknown origin) to IC50 for PI3Kdelta (unknown origin)
[25] = species on record: Homo sapiens; assay: Selectivity ratio of IC50 for p38alpha (unknown origin) to IC50 for PI3Kdelta (unknown origin)
[26] = species on record: Homo sapiens; assay: Selectivity ratio of IC50 for JAK3 (unknown origin) to IC50 for PI3Kdelta (unknown origin)
[27] = biological target: serum albumin (Homo sapiens, UniProt P02768); assay: Binding affinity to human serum albumin by HPLC analysis; type: ADME; conditions: read-out: PB (converted)
[28] = biological target: T1, Phosphatidylinositol 4,5-bisphosphate 3-kinase catalytic subunit delta isoform (Homo sapiens, UniProt O00329); assay: Inhibition of PI3Kdelta (unknown origin) using PIP2 as substrate preincubated for 15 mins followed by substrate addition measured after 60 mins by HTRF method
T1 sequence (O00329 whole entry): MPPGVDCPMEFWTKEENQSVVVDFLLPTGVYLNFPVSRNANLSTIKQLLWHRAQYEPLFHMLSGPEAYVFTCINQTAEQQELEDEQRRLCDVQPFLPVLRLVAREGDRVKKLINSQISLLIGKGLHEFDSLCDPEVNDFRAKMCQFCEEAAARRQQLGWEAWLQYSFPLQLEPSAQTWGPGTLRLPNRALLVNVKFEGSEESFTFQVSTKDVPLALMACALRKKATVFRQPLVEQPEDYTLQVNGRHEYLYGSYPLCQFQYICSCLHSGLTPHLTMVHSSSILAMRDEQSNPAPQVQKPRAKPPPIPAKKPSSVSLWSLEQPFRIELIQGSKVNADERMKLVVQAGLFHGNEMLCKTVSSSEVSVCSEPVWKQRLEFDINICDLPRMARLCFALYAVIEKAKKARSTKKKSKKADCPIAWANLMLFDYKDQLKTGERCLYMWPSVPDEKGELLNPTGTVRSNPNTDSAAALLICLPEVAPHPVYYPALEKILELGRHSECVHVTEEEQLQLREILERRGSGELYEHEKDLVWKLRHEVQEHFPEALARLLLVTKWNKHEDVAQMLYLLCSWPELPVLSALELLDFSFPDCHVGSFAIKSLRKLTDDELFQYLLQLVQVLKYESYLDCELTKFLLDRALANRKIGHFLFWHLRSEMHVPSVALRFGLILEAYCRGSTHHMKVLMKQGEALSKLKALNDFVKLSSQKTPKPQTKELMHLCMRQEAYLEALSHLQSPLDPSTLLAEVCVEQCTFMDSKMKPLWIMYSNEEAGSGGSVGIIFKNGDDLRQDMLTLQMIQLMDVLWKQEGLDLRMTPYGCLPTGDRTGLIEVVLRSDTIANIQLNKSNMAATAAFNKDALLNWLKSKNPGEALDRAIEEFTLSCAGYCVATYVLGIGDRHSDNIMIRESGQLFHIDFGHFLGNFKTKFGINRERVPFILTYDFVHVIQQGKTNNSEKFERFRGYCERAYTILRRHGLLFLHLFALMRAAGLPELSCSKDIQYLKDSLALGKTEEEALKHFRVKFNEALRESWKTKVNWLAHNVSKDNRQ

[29] = species on record: Homo sapiens; assay: Selectivity ratio of IC50 for PIK3C2B (unknown origin) to IC50 for PI3Kdelta (unknown origin)
[30] = species on record: Homo sapiens; assay: Selectivity ratio of IC50 for PIK3C3/PIK3R4 (unknown origin) to IC50 for PI3Kdelta (unknown origin)
[31] = Clearance in human microsomes at 0.5 uM in presence of NADPH measured up to 30 mins by LC-MS/MS analysis; type: ADME, Microsome; conditions: 0.5 h
[32] = biological target: Phosphatidylinositol 4,5-bisphosphate 3-kinase catalytic subunit gamma isoform (Homo sapiens, UniProt P48736); assay: Inhibition of PI3Kgamma (unknown origin) using PIP2 as substrate preincubated for 15 mins followed by substrate addition measured after 60 mins by HTRF method
Chain of Phosphatidylinositol 4,5-bisphosphate 3-kinase catalytic subunit gamma isoform (P48736 whole entry, canonical isoform): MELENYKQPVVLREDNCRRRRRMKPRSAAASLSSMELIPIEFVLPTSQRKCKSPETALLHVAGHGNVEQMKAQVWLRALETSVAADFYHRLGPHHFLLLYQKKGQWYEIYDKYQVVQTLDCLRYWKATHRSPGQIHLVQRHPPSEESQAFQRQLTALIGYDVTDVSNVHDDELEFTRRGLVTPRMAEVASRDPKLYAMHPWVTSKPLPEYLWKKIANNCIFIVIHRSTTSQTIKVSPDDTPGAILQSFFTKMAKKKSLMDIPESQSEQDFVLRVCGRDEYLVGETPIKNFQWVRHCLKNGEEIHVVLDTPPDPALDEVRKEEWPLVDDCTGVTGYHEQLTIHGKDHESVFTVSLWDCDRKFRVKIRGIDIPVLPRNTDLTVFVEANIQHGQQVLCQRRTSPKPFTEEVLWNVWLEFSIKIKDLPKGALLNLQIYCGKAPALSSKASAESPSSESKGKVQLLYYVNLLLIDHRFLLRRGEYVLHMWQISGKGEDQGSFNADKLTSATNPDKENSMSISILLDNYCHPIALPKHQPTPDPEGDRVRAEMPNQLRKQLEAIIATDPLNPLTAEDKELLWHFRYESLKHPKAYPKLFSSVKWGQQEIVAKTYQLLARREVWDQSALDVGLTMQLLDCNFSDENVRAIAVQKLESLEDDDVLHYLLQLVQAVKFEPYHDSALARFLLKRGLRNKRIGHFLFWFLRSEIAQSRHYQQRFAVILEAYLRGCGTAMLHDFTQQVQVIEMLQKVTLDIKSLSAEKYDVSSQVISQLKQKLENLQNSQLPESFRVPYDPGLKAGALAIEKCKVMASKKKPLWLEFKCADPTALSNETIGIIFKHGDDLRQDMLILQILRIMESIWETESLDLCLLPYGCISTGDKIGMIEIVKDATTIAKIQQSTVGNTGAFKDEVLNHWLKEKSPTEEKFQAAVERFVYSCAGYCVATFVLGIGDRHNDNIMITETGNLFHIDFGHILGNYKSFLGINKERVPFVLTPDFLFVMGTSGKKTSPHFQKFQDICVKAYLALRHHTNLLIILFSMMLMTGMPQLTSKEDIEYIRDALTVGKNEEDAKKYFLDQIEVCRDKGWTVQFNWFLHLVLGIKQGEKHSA

[33] = species on record: Homo sapiens; assay: Selectivity ratio of IC50 for Aurora B (unknown origin) to IC50 for PI3Kdelta (unknown origin)
[34] = system: PBMC; assay: Inhibition of cytostim stimulated IFNgamma production in human PBMC […] by electrochemiluminescence assay; type: functional, cell-based
[35] = species on record: Homo sapiens; assay: Selectivity ratio of IC50 for DAG beta (unknown origin) to IC50 for PI3Kdelta (unknown origin)
[36] = Clearance in rat microsomes at 0.5 uM in presence of NADPH measured up to 30 mins by LC-MS/MS analysis; type: ADME, Microsome; conditions: 0.5 h
[37] = species on record: Homo sapiens; assay: Selectivity ratio of IC50 for SPHK1 (unknown origin) to IC50 for PI3Kdelta (unknown origin)
[38] = species on record: Homo sapiens; assay: Selectivity ratio of IC50 for DAG zeta (unknown origin) to IC50 for PI3Kdelta (unknown origin)
[39] = species on record: Homo sapiens; assay: Selectivity ratio of IC50 for ROCK (unknown origin) to IC50 for PI3Kdelta (unknown origin)
[40] = species on record: Homo sapiens; assay: Selectivity ratio of IC50 for PI4KB (unknown origin) to IC50 for PI3Kdelta (unknown origin)
[41] = biological target: Voltage-gated inwardly rectifying potassium channel KCNH2 (Homo sapiens, UniProt Q12809); assay: Inhibition of human ERG expressed in CHO cells after 75 mins by fluorescence polarization assay
[42] = species on record: Homo sapiens; assay: Selectivity ratio of IC50 for BTK (unknown origin) to IC50 for PI3Kdelta (unknown origin)
[43] = biological target: Tyrosine-protein kinase ITK/TSK (Homo sapiens, UniProt Q08881); assay: Inhibition of ITK (unknown origin)
[44] = biological target: Glycogen synthase kinase-3 beta (Homo sapiens, UniProt P49841); assay: Inhibition of GSK3B (unknown origin)
[45] = biological target: Epidermal growth factor receptor (Homo sapiens, UniProt P00533); assay: Inhibition of EGFR (unknown origin)
[46] = biological target: Tyrosine-protein kinase SYK (Homo sapiens, UniProt P43405); assay: Inhibition of SYK (unknown origin)
[47] = biological target: Mitogen-activated protein kinase 10 (Homo sapiens, UniProt P53779); assay: Inhibition of JNK3 (unknown origin)
[48] = biological target: Mitogen-activated protein kinase 14 (Homo sapiens, UniProt Q16539); assay: Inhibition of p38alpha (unknown origin)
Chain of Mitogen-activated protein kinase 14 (Q16539 whole entry): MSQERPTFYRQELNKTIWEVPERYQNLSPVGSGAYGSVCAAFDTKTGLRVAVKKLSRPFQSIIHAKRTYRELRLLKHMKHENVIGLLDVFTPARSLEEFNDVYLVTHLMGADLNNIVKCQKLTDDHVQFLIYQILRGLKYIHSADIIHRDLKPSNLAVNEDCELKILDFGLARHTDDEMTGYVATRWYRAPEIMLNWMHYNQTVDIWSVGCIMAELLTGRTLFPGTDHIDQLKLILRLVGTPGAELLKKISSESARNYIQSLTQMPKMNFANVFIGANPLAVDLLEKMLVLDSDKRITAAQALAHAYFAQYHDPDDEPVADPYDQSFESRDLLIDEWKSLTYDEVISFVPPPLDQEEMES

[49] = biological target: Mitogen-activated protein kinase kinase kinase 5 (Homo sapiens, UniProt Q99683); assay: Inhibition of ASK1 (unknown origin)
[50] = biological target: Tyrosine-protein kinase JAK3 (Homo sapiens, UniProt P52333); assay: Inhibition of JAK3 (unknown origin)
[51] = biological target: Tyrosine-protein kinase BTK (Homo sapiens, UniProt Q06187); assay: Inhibition of BTK (unknown origin)
[52] = biological target: Tyrosine-protein kinase Lck (Homo sapiens, UniProt P06239); assay: Inhibition of LCK (unknown origin)
[53] = biological target: Leucine-rich repeat serine/threonine-protein kinase 2 (Homo sapiens, UniProt Q5S007); assay: Inhibition of LRRK2 (unknown origin)
[54] = biological target: Rho-associated protein kinase 1 (Homo sapiens, UniProt Q13464); assay: Inhibition of ROCK1 (unknown origin)
[55] = biological target: Inhibitor of nuclear factor kappa-B kinase subunit beta (Homo sapiens, UniProt O14920); assay: Inhibition of IKK2 (unknown origin)
[56] = biological target: Inhibitor of nuclear factor kappa-B kinase subunit alpha (Homo sapiens, UniProt O15111); assay: Inhibition of IKK1 (unknown origin)
[57] = biological target: Aurora kinase B (Homo sapiens, UniProt Q96GD4); assay: Inhibition of Aurora B (unknown origin)
Chain of Aurora kinase B (Q96GD4 whole entry): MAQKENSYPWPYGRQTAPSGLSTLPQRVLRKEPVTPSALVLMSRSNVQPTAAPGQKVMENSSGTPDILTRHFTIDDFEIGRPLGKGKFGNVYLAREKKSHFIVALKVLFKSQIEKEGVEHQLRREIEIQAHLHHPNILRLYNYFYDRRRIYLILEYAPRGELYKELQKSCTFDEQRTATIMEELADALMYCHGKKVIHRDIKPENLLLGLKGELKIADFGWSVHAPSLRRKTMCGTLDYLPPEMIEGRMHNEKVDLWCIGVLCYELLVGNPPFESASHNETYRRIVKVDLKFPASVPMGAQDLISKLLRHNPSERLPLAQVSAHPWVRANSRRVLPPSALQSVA

[58] = biological target: Tyrosine-protein kinase JAK2 (Homo sapiens, UniProt O60674); assay: Inhibition of JAK2 (unknown origin)
Chain of Tyrosine-protein kinase JAK2 (O60674 whole entry): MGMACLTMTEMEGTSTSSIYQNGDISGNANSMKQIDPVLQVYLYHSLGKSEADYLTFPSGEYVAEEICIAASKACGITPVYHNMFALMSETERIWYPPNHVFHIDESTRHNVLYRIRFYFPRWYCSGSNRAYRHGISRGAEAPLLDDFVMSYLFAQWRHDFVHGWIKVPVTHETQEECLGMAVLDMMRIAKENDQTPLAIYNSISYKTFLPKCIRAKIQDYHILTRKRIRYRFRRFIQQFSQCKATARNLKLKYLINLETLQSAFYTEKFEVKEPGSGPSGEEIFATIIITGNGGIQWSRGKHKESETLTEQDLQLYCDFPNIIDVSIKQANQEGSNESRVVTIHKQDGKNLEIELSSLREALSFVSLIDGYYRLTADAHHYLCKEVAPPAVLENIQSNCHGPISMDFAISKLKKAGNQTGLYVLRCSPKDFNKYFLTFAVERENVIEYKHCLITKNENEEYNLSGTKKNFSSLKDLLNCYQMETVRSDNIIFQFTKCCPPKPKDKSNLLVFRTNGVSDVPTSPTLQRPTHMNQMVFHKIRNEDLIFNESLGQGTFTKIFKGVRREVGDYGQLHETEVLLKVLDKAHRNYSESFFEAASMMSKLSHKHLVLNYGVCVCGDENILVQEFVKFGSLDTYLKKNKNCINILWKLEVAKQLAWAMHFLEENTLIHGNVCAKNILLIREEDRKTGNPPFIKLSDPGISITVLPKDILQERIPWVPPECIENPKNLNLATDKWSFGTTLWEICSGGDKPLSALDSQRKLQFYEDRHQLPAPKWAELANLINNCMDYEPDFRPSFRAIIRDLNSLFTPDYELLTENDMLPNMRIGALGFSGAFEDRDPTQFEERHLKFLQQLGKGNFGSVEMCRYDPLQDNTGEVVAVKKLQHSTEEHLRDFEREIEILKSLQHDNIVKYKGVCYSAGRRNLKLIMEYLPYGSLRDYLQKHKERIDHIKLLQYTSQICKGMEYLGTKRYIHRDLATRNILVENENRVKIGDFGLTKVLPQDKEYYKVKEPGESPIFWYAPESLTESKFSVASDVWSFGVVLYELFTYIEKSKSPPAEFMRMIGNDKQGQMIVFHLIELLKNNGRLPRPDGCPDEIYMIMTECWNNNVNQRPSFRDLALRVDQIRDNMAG

Ratio IC50 [1]: > 100
Ratio IC50 [2]: > 100
Ratio IC50 [3]: > 100
Ratio IC50 [4]: > 100
Ratio IC50 [5]: > 100
Ratio IC50 [6]: > 100
Ratio IC50 [7]: > 100
Ratio IC50 [8]: > 100
Ratio IC50 [9]: > 100
Ratio IC50 [10]: > 100
Ratio IC50 [11]: > 100
Ratio IC50 [12]: > 100
IC50 [13]: 0.631 µM
Ratio IC50 [14]: > 100
Ratio IC50 [15]: > 100
Ratio IC50 [16]: > 100
Ratio IC50 [17]: > 100
IC50 [18]: 1 µM
solubility kinetic at 1 h [19]: 12 µg/mL (≈ 27.2 µM)
Ratio IC50 [20]: > 100
Ratio IC50 [21]: > 100
Ratio IC50 [22]: > 100
Ratio IC50 [23]: > 100
Ratio IC50 [24]: > 100
Ratio IC50 [25]: > 100
Ratio IC50 [26]: > 100
fraction unbound [27]: 0.101
IC50 [28]: 0.00631 µM
Ratio IC50 [29]: > 100
Ratio IC50 [30]: > 100
clearance [31]: 7.9 mL/min/g
IC50 [32]: 1 µM
Ratio IC50 [33]: > 100
Ratio IC50 [35]: > 100
clearance [36]: 17.4 mL/min/g
Ratio IC50 [37]: > 100
Ratio IC50 [38]: > 100
Ratio IC50 [39]: > 100
Ratio IC50 [40]: > 100
Ratio IC50 [42]: > 100
Compound: COc1ncc(C2=CCOCC2)cc1NS(=O)(=O)c1cn(Cc2ccccc2)c(C)n1
IC50 [34]: 0.0501 µM
IC50 [41]: > 50.1 µM

IC50 [43]: > 10 µM
IC50 [44]: > 10 µM
IC50 [45]: > 10 µM
IC50 [46]: > 10 µM
IC50 [47]: > 10 µM
IC50 [13]: 6.31 µM
IC50 [48]: > 10 µM
IC50 [49]: > 10 µM
IC50 [50]: > 10 µM
IC50 [51]: > 10 µM
IC50 [18]: 0.794 µM
IC50 [28]: 0.251 µM
IC50 [52]: > 10 µM
IC50 [32]: 3.98 µM
IC50 [53]: > 10 µM
IC50 [54]: > 10 µM
IC50 [55]: > 10 µM
IC50 [56]: > 10 µM
IC50 [57]: > 10 µM
IC50 [58]: > 10 µM
Compound: CS(=O)(=O)Nc1cc(-c2ccncc2)cnc1Cl

IC50 [13]: 31.6 µM
IC50 [18]: 15.8 µM
IC50 [28]: 1 µM
IC50 [32]: 12.6 µM
Compound: O=S(=O)(Nc1cc(-c2ccccc2)cnc1Cl)c1ccccc1
